The values below come from patent publication US20110172217A1, “RING-FUSED MORPHOLINE DERIVATIVE HAVING PI3K-INHIBITING ACTIVITY” (Shionogi & Co., Ltd., priority 2008, published 2011).

As usually defined, the pIC50 is −log10 of the IC50, conventionally taken in molar units.

pIC50: −log10 of the molar value.

For data set [1], the system named is Salmonella typhimurium TA98 line, TA100 line. Description: Fat Test (mutagenicity in Salmonella typhimurium). The format is cell-based. Details: key: When the mutagenicity is negative, the compound is shown as (−); When positive, the compound is shown as (+). To be noted: TA98 and TA100 lines, non-metabolism-activation and metabolism-activation conditions. The procedure: 20 μL of Salmonella enterica subsp. typhimurium (Salmonella typhimurium TA98 line, TA100 line) cryopreserved was inoculated to 10 mL of liquid nutrient medium (2.5% Oxoid nutrient broth No. 2) and then precultured at 37° C. for 10 hours with shaking. Regarding TA98 line, after 9 mL of a bacterial suspension was centrifuged (2000×g, 10 minutes) to remove the culture solution, the bacteria was suspended in 9 mL of Micro F buffer solution (K2HPO4: 3.5 g/L, KH2PO4: 1 g/L, (NH4)2SO4: 1 g/L, tri-sodium citric acid dihydrate: 0.25 g/L, MgSO4.7H2O: 0.1 g/L), and then added to 110 mL of Exposure media (Micro F buffer solution containing biotin: 8 μg/mL, histidine: 0.2 μg/mL, glucose: 8 mg/mL). Regarding TA 100 line, 120 mL of Exposure media was added to 3.16 mL of the bacterial suspension to prepare a test bacterial suspension. 12 μL of a solution of a test substance in DMSO (diluted eight times in a common ratio of 2 from the maximum dose of 50 mg/mL); 12 μL of DMSO as a negative control; 50 μg/mL 4-nitroquinoline-1-oxide solution in DMSO for TA98 line or 0.25 μg/mL 2-(2-furyl)-3-(5-nitro-2-furyl)acrylamide solution in DMSO as a positive control for TA 100 line in the case of a non-metabolism-activation condition; 12 μL of 40 μg/mL 2-aminoanthracene solution in DMSO for TA98 line or 20 μg/mL of 2-aminoanthracene solution in DMSO for TA100 line in the case of a metabolism-activation condition; were each mixed with 588 μL of the test bacterial suspension (in the case of a metabolism activation condition, a mixed solution of 498 μL of the test bacterial suspension and 90 μL S9 mix) and then cultured at 37° C. at 90 minutes with shaking. 460 μL of the bacterial suspension to which a test substance was exposed was mixed with 2300 μL of Indicator media (a Micro F buffer solution containing 8 μg/mL biotin, 0.2 μg/mL histidine, 8 mg/mL glucose, and 37.5 μg/mL bromocresol purple). […] Thus, in 48 wells per dose, the number of the bacteria-proliferation wells in which the color changed to yellow was counted, compared with a group of negative controls, and then evaluated. […]

A further data set has as its target T1, CYP3A4 (Homo sapiens, UniProt P08684).
T1 construct: enzyme: pooled human liver microsome 0.2 mg protein/mL; from tissue; host or cells: pooled human liver microsomes
Description: CYP inhibition test, hydroxylation of terfenadine. The data set is classed as in vitro ADME. To be noted: pooled human liver microsome; one of 5 kinds. From the text: O-de-ethylation of 7-ethoxyresorufin (CYP1A2), methyl-hydroxylation of tolbutamide (CYP2C9), 4′-hydroxylation of mephenyloin (CYP2C19), O-demethylation of dextromethorphan (CYP2D6), and hydroxylation of terfenadine (CYP3A4), which are typical substrate for metabolic reactions of human main CYP5 molecular species (CYP1A2, 2C9, 2C19, 2D6, and 3A4), were adopted as indexes.
The reaction conditions are as follows: substrate: 0.5 μmol/L of ethoxyresorufin (CYP1A2), 100 μmol/L of tolbutamide (CYP2C9), 50 μmol/L of S-mephenyloin (CYP2C19), […] of dextromethorphan (CYP2D6), and 1 μmol/L of terfenadine (CYP3A4); reaction time; 15 minutes; reaction temperature: 37° C.; enzyme: pooled human liver microsome 0.2 mg protein/mL; test drug concentration: 1, 5, 10, and 20 μmol/L (4 points).
In a 96-well plate, as a reaction solution, five kinds of substrates, a human liver microsome, and a test drug were added to 50 mmol/L Hepes buffer solution in the aforementioned ratio. A coenzyme NADPH was added to start a metabolic reaction, which is an index. After reacting at 37° C. for 15 minutes, a solution of methanol/acetonitrile (1/1 (v/v)) was added to quench the reaction. After centrifugation at 3000 rpm for 15 minutes, resorufin (CYP1A2 metabolite) in the supernatant was quantitated with a fluorescence multilabel counter, and hydroxylated tolbutamide (CYP2C9 metabolite), 4′-hydroxylated mephenyloin (CYP2C19 metabolite), […], terfenadine in alcohol form (CYP3A4 metabolite) were quantitated with LC/MS/MS.
The case wherein only DMSO (a solvent which dissolved a drug) was added to a reaction system was defined as a control (100%). When a test drug solution was added, the remaining activity (%) at each concentration was calculated, and then IC50 was calculated with a concentration and an inhibition ratio by an inverse estimation using a logistic model.
Background: Liver microsomes are vesicles of endoplasmic reticulum, rich in cytochrome P450 enzymes.

T1 sequence (P08684 whole entry): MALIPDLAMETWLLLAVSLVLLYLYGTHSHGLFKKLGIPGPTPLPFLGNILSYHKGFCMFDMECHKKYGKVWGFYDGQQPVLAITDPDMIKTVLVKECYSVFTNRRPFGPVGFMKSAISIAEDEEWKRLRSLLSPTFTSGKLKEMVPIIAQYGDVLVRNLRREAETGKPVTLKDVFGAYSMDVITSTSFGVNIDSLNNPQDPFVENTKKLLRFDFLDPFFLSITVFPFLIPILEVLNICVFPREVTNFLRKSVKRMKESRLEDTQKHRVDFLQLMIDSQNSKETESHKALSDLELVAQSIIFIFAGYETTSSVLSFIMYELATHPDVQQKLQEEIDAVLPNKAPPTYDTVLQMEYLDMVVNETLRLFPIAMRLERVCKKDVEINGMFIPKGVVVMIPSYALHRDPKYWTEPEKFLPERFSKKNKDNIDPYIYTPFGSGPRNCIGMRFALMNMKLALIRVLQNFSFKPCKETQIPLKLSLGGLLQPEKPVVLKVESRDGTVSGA

Regarding `O=C(O)c1ccccc1Nc1ccc2c(n1)N(C(=O)Nc1ccccc1)CCO2` [Compound I-145], the mutagenicity result in data set [1] is listed as “(−)”. At CYP3A4, `O=C(O)COc1cccc(Nc2ccc3c(n2)N(C(=O)Nc2ccccc2)CCO3)c1` [Compound I-240] showed a negative-log IC50 (pIC50) of less than 4.70.
